What all share (format): binding
The target in assay [1] is T1, CtUGGTGT24 (UDP-glucose glycoprotein glucosyltransferase, catalytic domain) (Thermochaetoides thermophila, UniProt G0SB58).
T1 sequence (G0SB58 1187-1473): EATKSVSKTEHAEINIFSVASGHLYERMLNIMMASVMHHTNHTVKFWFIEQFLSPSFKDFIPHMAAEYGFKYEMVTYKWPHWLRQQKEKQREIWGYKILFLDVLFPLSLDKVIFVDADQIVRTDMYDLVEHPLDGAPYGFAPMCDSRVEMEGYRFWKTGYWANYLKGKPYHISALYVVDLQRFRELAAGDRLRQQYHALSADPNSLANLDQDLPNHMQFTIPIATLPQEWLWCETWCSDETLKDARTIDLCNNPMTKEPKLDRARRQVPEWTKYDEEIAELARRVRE
In words: […] Å co-crystal structure.

In assay [2] the target is human UGGT1 (Homo sapiens, UniProt Q9NYU2). Kind of assay: STD NMR.
Chain of human UGGT1 (Q9NYU2 43-1551): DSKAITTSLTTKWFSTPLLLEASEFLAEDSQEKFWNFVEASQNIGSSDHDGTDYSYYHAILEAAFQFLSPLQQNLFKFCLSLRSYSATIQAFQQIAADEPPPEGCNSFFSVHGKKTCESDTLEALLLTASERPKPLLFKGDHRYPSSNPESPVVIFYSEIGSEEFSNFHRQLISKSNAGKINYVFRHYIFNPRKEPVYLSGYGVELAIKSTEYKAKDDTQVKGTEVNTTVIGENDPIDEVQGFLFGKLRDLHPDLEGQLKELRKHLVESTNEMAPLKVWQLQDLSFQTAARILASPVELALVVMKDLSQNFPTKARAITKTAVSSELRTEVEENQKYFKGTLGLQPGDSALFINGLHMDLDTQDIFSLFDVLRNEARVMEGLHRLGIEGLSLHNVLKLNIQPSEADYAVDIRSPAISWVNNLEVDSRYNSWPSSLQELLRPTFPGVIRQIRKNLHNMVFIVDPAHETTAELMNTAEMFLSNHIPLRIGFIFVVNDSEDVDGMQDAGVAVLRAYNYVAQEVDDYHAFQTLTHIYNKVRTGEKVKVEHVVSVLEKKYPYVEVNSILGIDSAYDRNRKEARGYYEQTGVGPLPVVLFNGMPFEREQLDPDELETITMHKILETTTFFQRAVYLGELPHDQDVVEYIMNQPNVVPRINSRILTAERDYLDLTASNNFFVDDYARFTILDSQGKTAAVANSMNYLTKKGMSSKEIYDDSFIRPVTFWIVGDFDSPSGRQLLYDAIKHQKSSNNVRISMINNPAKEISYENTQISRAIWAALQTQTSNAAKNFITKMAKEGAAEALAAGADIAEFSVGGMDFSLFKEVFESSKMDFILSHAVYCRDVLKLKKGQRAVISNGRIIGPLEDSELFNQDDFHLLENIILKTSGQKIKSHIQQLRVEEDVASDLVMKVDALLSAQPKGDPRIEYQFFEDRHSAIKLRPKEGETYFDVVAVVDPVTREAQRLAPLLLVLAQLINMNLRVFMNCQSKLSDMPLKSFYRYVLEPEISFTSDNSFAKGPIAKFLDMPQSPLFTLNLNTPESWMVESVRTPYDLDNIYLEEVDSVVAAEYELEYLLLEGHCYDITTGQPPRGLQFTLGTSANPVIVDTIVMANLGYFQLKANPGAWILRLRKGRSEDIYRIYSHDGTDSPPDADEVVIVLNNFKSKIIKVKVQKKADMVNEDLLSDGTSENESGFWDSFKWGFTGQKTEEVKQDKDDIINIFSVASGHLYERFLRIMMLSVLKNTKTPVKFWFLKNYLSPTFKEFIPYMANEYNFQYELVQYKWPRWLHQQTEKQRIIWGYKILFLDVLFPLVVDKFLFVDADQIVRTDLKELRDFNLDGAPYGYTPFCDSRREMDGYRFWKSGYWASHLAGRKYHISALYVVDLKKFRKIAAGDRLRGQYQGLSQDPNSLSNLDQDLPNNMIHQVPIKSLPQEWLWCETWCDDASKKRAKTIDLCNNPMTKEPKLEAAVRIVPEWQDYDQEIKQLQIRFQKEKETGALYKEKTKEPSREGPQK
In assay [3] the target is T1, CtUGGTGT24 (UDP-glucose glycoprotein glucosyltransferase, catalytic domain). Kind of assay: co-crystal structure.

As a reminder, the Kd is the concentration at which binding is half-saturated. A higher Kd goes with a looser complex. `Oc1ccc(CN2CCOCC2)c2cccnc12` [5M-8OH-Q, 5-[(morpholin-4-yl)methyl]quinolin-8-ol]: the Kd in assay [1] came out at 47 ± 0.7 µM; in assay [2], 613 µM.
Regarding `O=c1ccn([C@@H]2O[C@H](COP(=O)(O)OP(=O)(O)O[C@H]3O[C@H](CO)[C@@H](O)[C@H](O)[C@H]3F)[C@@H](O)[C@H]2O)c(=O)[nH]1` [U2F], the “co-crystal structure (X-ray)” value in assay [3] is reported as “In the ^U2FCtUGGTGT24 structure (PDB ID 7ZLU) these two water molecules are replaced by an O atom”.

(Values after PMC10562782 (iScience, 2023).)
